pIC50: −log10 of the molar value.
Experiments:
human calcium receptor = molecular target: T1, human calcium receptor (Homo sapiens, UniProt P41180); assay: Evaluation of antagonistic action on calcium receptor using reporter gene (luciferase); format: cell-based; conditions: rat adrenal derived cells with luciferase and human calcium receptor cDNA, 5 mM calcium chloride, 4 hrs; read-out: IC50 (concentration showing 50% inhibitory rate of luciferase activity)
T1 construct: expressed in transfected cells; host or cells: cell strain derived from rat adrenal, co-transfected with luciferase cDNA
T1 sequence (P41180 20-1078): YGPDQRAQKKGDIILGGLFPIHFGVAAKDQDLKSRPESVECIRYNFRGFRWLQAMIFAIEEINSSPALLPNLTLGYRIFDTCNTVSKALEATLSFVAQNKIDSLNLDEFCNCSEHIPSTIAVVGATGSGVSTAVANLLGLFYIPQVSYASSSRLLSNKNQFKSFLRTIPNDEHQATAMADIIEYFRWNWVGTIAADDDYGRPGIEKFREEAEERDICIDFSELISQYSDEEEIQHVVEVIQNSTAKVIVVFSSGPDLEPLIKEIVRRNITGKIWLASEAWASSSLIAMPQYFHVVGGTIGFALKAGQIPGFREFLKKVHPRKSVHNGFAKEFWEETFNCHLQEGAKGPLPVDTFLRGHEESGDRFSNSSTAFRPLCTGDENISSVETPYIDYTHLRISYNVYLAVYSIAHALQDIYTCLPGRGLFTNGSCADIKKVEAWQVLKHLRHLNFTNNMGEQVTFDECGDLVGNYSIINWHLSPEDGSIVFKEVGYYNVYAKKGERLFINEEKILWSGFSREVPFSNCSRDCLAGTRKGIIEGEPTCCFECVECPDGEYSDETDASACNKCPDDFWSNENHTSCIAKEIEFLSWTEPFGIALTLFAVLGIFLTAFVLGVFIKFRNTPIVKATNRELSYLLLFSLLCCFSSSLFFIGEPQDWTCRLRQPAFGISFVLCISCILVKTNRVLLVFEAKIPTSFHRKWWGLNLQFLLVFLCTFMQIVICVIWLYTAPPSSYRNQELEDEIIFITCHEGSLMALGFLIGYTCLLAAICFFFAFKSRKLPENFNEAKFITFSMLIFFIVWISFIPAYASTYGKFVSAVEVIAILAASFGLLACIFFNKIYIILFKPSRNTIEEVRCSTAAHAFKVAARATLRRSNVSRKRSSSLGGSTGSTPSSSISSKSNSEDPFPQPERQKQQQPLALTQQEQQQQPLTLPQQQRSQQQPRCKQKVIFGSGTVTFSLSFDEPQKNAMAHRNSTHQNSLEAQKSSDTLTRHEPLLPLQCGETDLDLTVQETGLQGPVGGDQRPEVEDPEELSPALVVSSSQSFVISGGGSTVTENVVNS
Protocol: Evaluation of Antagonistic Action on Calcium Receptor Using Reporter Gene
Luciferase cDNA and human calcium receptor cDNA were introduced into a cell strain derived from rat adrenal to transform the cells, and the transformed cells were cultured in a medium (80 μl, F12 medium containing 0.5% dialyzed horse serum and 0.25% dialyzed bovine fetal serum). A dimethyl sulfoxide solution containing a test compound at 0.1-10000 μM was diluted 100-fold with the medium and added to the test compound group at 10 μl per well (final concentration of dimethyl sulfoxide is 0.1%). In the same manner as in test compound group, dimethyl sulfoxide diluted 100-fold with medium was added to a control group and a blank group. Then, 50 mM calcium chloride-containing medium was added to every well except the blank group at 10 μl per well (final concentration is 5 mM). A medium alone was added to the blank group. After culture for 4 hrs, luciferase substrate was added and the luciferase activity was measured with a photoluminometer. The inhibitory rate (%) was calculated from the obtained measured values according to the following formula.
Based on the results, the concentration (IC50) showing 50% inhibitory rate was determined.

PTH release = conditions: rat PTH (1-34) 5 μg/kg, OVX rat; cited from earlier work
PTH secretion = assay: PTH secretagogue action, oral administration to fasted male SD rats, serum PTH by ELISA; format: in vivo, rat; conditions: test compound administration group
Protocol: The test compound was orally administered to 5 to 9-week-old male SD rats (Charles River Japan, Inc.) fasted for 20 hr, using a solvent (0.5% aqueous methyl cellulose solution) at a dose of 3 mg/5 ml/kg or 30 mg/5 ml/kg. A solvent alone was orally administered to the control group at a dose of 5 ml/kg. The blood was drawn from the tail vein 15 min, 30 min, 60 min and 120 min after the administration of the test compound, and serum was obtained. The serum PTH concentration was measured using rat PTH ELISA kit (Amersham Biosciences).

CYP2D6 = molecular target: T2, CYP2D6 (Homo sapiens, UniProt P10635); assay: Metabolic enzyme CYP2D6 inhibitory activity (BD Bioscience kit); format: in vitro ADME; conditions: enzyme activity free of test compound as 100%; read-out: CYP2D6 IC50 (concentration showing 50% inhibition)
T2 construct: purchased BD Bioscience
T2 sequence (P10635 whole entry): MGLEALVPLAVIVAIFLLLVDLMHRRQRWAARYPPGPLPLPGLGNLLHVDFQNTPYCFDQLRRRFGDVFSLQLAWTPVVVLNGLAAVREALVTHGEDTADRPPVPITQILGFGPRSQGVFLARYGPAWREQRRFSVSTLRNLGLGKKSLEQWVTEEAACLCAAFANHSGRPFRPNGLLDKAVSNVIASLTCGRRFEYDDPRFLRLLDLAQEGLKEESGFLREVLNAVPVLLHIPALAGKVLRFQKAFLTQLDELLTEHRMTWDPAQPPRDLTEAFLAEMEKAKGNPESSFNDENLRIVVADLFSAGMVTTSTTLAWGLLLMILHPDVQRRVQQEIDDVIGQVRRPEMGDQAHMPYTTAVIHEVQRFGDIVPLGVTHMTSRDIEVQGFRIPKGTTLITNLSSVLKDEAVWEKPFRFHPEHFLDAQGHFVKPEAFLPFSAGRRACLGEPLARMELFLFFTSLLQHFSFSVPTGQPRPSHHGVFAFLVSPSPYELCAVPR
Protocol: Metabolic Enzyme CYP2D6 Inhibitory Activity
Using a metabolic enzyme CYP2D6 inhibition measurement kit (BD Bioscience) and following the manual of the kit, the inhibitory activity of the test compound was measured. With the enzyme activity free of the test compound as 100%, the concentration (IC50) showing 50% inhibition was determined. The results are shown in Table 8, wherein “>10” means over 10 μM.

pIC50 (human calcium receptor) | Compound | also measured
6.84 | CC(OC[C@H](O)CNC(C)(C)Cc1ccc2ccccc2c1)c1ccccc1-c1ccc(CC(N)=O)cc1 (stereo partly drawn) [Example 15] | –
6.74 | Cc1ccc(CC(C)(C)NC[C@@H](O)CO[C@H](C)c2ccccc2OCc2ccc(C(=O)O)s2)cc1F [Example 30] | –
6.72 | CC(OC[C@H](O)CNC(C)(C)Cc1ccc2ccccc2c1)c1ccccc1OCCCCC(=O)O (stereo partly drawn) [Example 26] | –
6.61 | C[C@@H](OC[C@H](O)CNC(C)(C)Cc1ccc2ccccc2c1)c1ccccc1OCCCC(=O)O [Example 24] | –
7.68 | CC(OC(=O)OC1CCCCC1)OC(=O)c1ccc(-c2ccccc2C(C)OC[C@H](O)CNC(C)(C)Cc2ccc3ccccc3c2)cc1 (stereo partly drawn) [Example 8, 1-(cyclohexyloxycarbonyloxy)ethyl 2′-[1-[(2R)-2-hydroxy-3-[[2-methyl-1-(naphthalen-2-yl)propan-2-yl]amino]propoxy]ethyl]biphenyl-4-carboxylate] | –
7.62 | CC(=O)NCc1ccc(-c2ccccc2[C@@H](C)OC[C@H](O)CNC(C)(C)Cc2ccc3ccccc3c2)cc1 [Example 5, N-[[2′-[(1R)-1-[(2R)-2-hydroxy-3-[[2-methyl-1-(naphthalen-2-yl)propan-2-yl]amino]propoxy]ethyl]biphenyl-4-yl]methyl]acetamide] | –
7.85 | C=Cc1ccc(CC(C)(C)NC[C@@H](O)CO[C@H](C)c2ccccc2-c2ccc(C(=O)O)cc2)cc1 [Example 27] | –
– | rat PTH (1-34): rat parathyroid hormone fragment (1-34) administered to OVX rat | blood PTH concentration peak in 30 minutes (PTH release): about 175 pg/ml; time for blood PTH concentration to return to the original level (PTH release): 2 h
7.80 | C[C@@H](OC[C@H](O)CNC(C)(C)Cc1ccc2ccccc2c1)c1ccccc1/C=C/C(=O)O [Example 23] | –
6.92 | CC(OC[C@H](O)CNC(C)(C)Cc1ccc2ccccc2c1)c1ccccc1-c1ccc(CC(=O)O)cc1 (stereo partly drawn) [Example 14] | –
7.96 | CC(OC[C@H](O)CNC(C)(C)Cc1ccc2ccccc2c1)c1ccccc1-c1ccc(-c2nnn[nH]2)cc1 (stereo partly drawn) [Example 7, (R)-3-[[2-methyl-1-(naphthalen-2-yl)propan-2-yl]amino]-1-[1-[4′-(1H-tetrazol-5-yl)biphenyl-2-yl]ethoxy]propan-2-ol] | –
7.74 | C[C@@H](OC[C@H](O)CNC(C)(C)Cc1ccc2ccccc2c1)c1ccccc1CCCCC(=O)O [Example 25] | serum PTH concentration 15 min later (PTH secretion; 3 mg/kg oral): 19.16 ± 4.05 pg/mL; serum PTH concentration 30 min later (PTH secretion; 3 mg/kg oral): 18.15 ± 3.15 pg/mL
7.85 | C[C@@H](OC[C@H](O)CNC(C)(C)Cc1ccc2ccccc2c1)c1ccccc1CCCCCC(=O)O [Example 2, 6-[2-[(1R)-1-[(2R)-2-hydroxy-3-[[2-methyl-1-(naphthalen-2-yl)propan-2-yl]amino]propoxy]ethyl]phenyl]hexanoic acid] | –
6.60 | C[C@@H](OC[C@H](O)CNC(C)(C)Cc1ccc2ccccc2c1)c1ccccc1-c1ccc([N+](=O)[O-])cc1 [Example 28] | –
7.26 | C[C@@H](OC[C@H](O)CNC(C)(C)Cc1ccc2ccccc2c1)c1ccccc1-c1ccc(N)cc1 [Example 29] | –
7.10 | Cc1ccccc1[C@H](OC[C@@H](CNC(C)(C)Cc1ccc2ccccc2c1)OC(=O)/C=C\C(=O)O)C1CC1 [Example 6, (Z)-butenedioic acid mono-[(2R)-1-[(1R)-(cyclopropyl)-(2-methylphenyl)methoxy]-3-[[2-methyl-1-(naphthalen-2-yl)propan-2-yl]amino]propan-2-yl]ester] | serum PTH concentration 30 min later (PTH secretion; 30 mg/kg oral): 14.45 ± 1.45 pg/mL; serum PTH concentration 60 min later (PTH secretion; 30 mg/kg oral): 13.91 ± 1.62 pg/mL
7.64 | CC(C)(Cc1ccc2ccccc2c1)NC[C@@H](O)COC(C1CC1)C1CC1 [Example 3, (2R)-1-dicyclopropylmethoxy-3-[[2-methyl-1-(naphthalen-2-yl)propan-2-yl]amino]propan-2-ol] | –
7.64 | CC(OC[C@H](O)CNC(C)(C)Cc1ccc2ccccc2c1)c1ccccc1C#CC(=O)O (stereo partly drawn) [Example 10, [2-[1-[(2R)-2-hydroxy-3-[[2-methyl-1-(naphthalen-2-yl)propan-2-yl]amino]propoxy]ethyl]phenyl]propynoic acid] | –
7.85 | CC(OC[C@H](O)CNC(C)(C)Cc1ccc2ccccc2c1)c1ccccc1-c1ccc(C(=O)O)s1 (stereo partly drawn) [Example 9, 5-[2-[1-[(2R)-2-hydroxy-3-[[2-methyl-1-(naphthalen-2-yl)propan-2-yl]amino]propoxy]ethyl]phenyl]thiophene-2-carboxylic acid] | –
7.66 | CC(OC[C@H](O)CNC(C)(C)Cc1ccc2ccccc2c1)c1ccccc1-c1ccc(C(=O)NS(C)(=O)=O)cc1 (stereo partly drawn) [Example 18] | pIC50 (CYP2D6): 5.10
7.96 | C[C@@H](OC[C@H](O)CNC(C)(C)Cc1ccc2ccccc2c1)c1ccccc1-c1cccc(CC(=O)O)c1 [Example 4, [2′-[(1R)-1-[(2R)-2-hydroxy-3-[[2-methyl-1-(naphthalen-2-yl)propan-2-yl]amino]propoxy]ethyl]biphenyl-3-yl]acetic acid] | serum PTH concentration 15 min later (PTH secretion; 3 mg/kg oral): 22.71 ± 2.52 pg/mL; serum PTH concentration 30 min later (PTH secretion; 3 mg/kg oral): 22.83 ± 2.91 pg/mL; serum PTH concentration 60 min later (PTH secretion; 3 mg/kg oral): 13.69 ± 2.09 pg/mL; serum PTH concentration 120 min later (PTH secretion; 3 mg/kg oral): 11.76 ± 1.24 pg/mL
6.80 | CCOC(=O)Cc1ccc(-c2ccccc2C(C)OC[C@H](O)CNC(C)(C)Cc2ccc3ccccc3c2)cc1 (stereo partly drawn) [Example 13] | –
7.74 | CC(OC[C@H](O)CNC(C)(C)Cc1ccc2ccccc2c1)c1ccccc1-c1ccc(-c2nc(=O)o[nH]2)cc1 (stereo partly drawn) [Example 19] | –
6.87 | CC(OC[C@H](O)CNC(C)(C)Cc1ccc2ccccc2c1)c1ccccc1-c1ccc(-c2nsc(=O)[nH]2)cc1 (stereo partly drawn) [Example 16] | –
7.52 | CC(OC[C@H](O)CNC(C)(C)Cc1ccc2ccccc2c1)c1ccccc1-c1ccc(C(N)=O)cc1 (stereo partly drawn) [Example 20] | –
6.98 | C[C@@H](OC[C@H](O)CNC(C)(C)Cc1ccc2ccccc2c1)c1ccccc1-c1ccc(C(=O)NO)cc1 [Example 17] | –
6.63 | CC(OC[C@H](O)CNC(C)(C)Cc1ccc2ccccc2c1)c1ccccc1OCC(=O)O (stereo partly drawn) [Example 22] | –

Compound | pIC50 (human calcium receptor) | also measured
CCOP(=O)(O)c1ccc(-c2ccccc2C(C)OC[C@H](O)CNC(C)(C)Cc2ccc3ccccc3c2)cc1 (stereo partly drawn) [Example 21] | 7.82 | –
CCOP(=O)(O)c1ccc(-c2ccccc2[C@@H](C)OC[C@H](O)CNC(C)(C)Cc2ccc3ccccc3c2)cc1 [Example 11, Monoethyl [2′-[(1R)-1-[(2R)-2-hydroxy-3-[[2-methyl-1-(naphthalen-2-yl)propan-2-yl]amino]propoxy]ethyl]biphenyl-4-yl]phosphonate] | 8.10 | –

— patent US7285572B2, “CaSR antagonist” (Japan Tobacco Inc., priority 2003, dated 2007)
